# Measurements taken from patent US12329764B2, “Composition for promoting normal urinary function” (Vidya Herbs, Inc., priority 2018, dated 2025).
# How the values were obtained:
# [1] = test system: BPH model rats; assay: Prostate growth in testosterone induced BPH rats; type: in vivo, Wistar rats
# Protocol: Forty-two male Wistar rats (10 week old) were purchased from Biogen, Bangalore, India (CPCSEA Reg. No. 971/bc/06). The animals were housed in accordance with the CPCSEA (Committee for the Purpose of Control and Supervision of Experiments on Animals) guidelines. After a one-week acclimatization period the animals were housed in rooms maintained at 22±2° C. and 30-70% humidity. Water and standard pellet diet were given ad libitum. The animals were randomly divided into seven groups, each group consisting of six animals with less than 20% mean body weight range.
# (§1) BPH was induced in rats using testosterone 5 mg/kg subcutaneously and a simultaneous treatment with different doses of saw palmetto preparations viz. Saw palmetto oil (SPO) and the inventive composition (200 and 400 mg/kg b.w.) or Finasteride (1 mg/kg b.w.) p.o., was followed for 21 days (Table 1). The inventive composition (VISPO) was a composition of saw palmetto oil having 3% β-sitosterol. At the end of the treatment period, blood was collected prior to the necropsy. Animals were sacrificed by overdose of anesthetics. The vital parameters such as prostate weight, prostate weight to body weight ratio, growth inhibition of prostate, serum testosterone level, expression of inflammatory and apoptotic proteins in prostate tissue were evaluated.
# Following a 21-day treatment with the saw palmetto oil preparations and/or Finasteride, prostate tissues were excised, rinsed and weighed immediately after removal. The PW/BW ratio was calculated using the following equation: PW/BW ratio=(Prostate weight of each animal from experimental group/Body weight of each animal from experimental group)×1000. The percentage of growth inhibition was calculated as follows: 100−[(treated group−control group)/(BPH group−control group)]×100.
# [2] = test system: hyperplastic patterns in prostate tissue of BPH rats; assay: Histology (H&E) of prostate tissue of BPH rats; type: in vivo, Wistar rats; conditions: finasteride group 1 mg/kg
# Protocol: as §1
# The prostate tissue samples were fixed in 4% formalin, dehydrated with a graded alcohol series, embedded in paraffin, and then cut into 4 μm thickness. The sections were stained with hematoxylin and eosin (H&E, Sigma-Aldrich, St. Louis, MO, USA). The images were captured using a microscope (Leica, Germany).
smiles,measurement,setting,value
CC(C)(C)NC(=O)[C@H]1CC[C@H]2[C@@H]3CC[C@H]4NC(=O)C=C[C@]4(C)[C@H]3CC[C@]12C [Finasteride],Prostate weight,"[1]; 1 mg/kg p.o., 21 days, testosterone 5 mg/kg s.c., mean ± SEM (n = 6)",0.27 ± 0.01 g
same,Inhibition of growth,"[1]; 1 mg/kg p.o., 21 days, prostate growth vs BPH and control groups",93.18%
same,Reduction in prostate weight,"[1]; Finasteride treatment 1 mg/kg, vs BPH group",2.51 fold
same,"Prostate weights, in words","[1]; vs BPH group, p<0.001",reduced considerably
same,Histological examination of prostate tissue,[2],near normal prostatic glands with mild focal inflammation
